Measurements reported in ChEMBL document CHEMBL5465560, “Selectivity Literature for EUbOPEN Chemogenomic Library” (2024).

Assays:
[1] = target: T1, Serine/threonine-protein kinase TBK1 (Homo sapiens) (UniProt Q9UHD2); experiment: Selectivity interaction (KinomeScan (DiscoverX)) EUB0001049a TBK1; details: at 1 µM
T1 sequence (whole entry): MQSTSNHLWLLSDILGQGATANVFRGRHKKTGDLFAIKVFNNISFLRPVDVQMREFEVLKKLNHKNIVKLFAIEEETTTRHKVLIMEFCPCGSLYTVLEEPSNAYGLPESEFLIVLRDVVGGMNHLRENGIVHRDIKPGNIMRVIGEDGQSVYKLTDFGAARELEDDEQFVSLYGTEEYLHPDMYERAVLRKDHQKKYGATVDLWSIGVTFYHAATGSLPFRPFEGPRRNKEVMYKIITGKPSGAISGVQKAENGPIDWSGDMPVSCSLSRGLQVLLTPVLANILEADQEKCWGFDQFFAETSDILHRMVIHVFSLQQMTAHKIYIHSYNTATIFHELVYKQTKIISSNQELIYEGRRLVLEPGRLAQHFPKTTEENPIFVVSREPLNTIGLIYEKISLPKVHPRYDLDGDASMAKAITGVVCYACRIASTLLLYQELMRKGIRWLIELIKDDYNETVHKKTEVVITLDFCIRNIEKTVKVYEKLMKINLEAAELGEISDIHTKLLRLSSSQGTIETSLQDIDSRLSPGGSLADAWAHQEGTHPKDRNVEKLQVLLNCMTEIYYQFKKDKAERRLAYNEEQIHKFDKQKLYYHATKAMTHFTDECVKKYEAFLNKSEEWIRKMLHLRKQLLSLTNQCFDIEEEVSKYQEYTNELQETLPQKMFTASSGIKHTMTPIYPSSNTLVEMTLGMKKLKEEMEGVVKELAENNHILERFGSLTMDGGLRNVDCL

[2] = target: T2, Serine/threonine-protein kinase greatwall (Homo sapiens) (UniProt Q96GX5); experiment: Selectivity interaction (Kinase panel (KiNativ target engagement assay in Jurkat cells)) EUB0001635a MASTL; type: cell-based; details: at 1 µM
T2 sequence (whole entry): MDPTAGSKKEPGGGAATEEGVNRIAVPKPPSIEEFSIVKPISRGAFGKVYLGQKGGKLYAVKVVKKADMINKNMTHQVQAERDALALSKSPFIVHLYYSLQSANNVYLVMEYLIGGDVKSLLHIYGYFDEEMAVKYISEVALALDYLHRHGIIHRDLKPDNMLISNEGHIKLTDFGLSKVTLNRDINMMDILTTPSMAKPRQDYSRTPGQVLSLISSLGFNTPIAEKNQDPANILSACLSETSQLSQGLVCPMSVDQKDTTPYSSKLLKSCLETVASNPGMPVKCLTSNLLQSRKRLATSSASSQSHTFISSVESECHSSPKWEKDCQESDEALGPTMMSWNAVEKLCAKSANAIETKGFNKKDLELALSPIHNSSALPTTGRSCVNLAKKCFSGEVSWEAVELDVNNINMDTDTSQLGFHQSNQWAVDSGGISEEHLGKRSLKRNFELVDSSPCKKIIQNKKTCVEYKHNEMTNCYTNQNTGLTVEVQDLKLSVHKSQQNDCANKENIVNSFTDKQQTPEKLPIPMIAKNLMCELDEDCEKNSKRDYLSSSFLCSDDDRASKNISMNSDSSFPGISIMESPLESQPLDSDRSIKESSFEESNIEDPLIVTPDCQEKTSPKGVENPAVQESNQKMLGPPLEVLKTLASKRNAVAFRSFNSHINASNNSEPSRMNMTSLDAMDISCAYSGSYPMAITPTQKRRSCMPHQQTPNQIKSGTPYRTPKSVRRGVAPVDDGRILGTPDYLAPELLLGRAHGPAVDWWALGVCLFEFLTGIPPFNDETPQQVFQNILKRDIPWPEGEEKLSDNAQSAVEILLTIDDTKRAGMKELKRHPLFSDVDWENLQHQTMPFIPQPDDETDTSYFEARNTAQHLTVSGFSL

[3] = target: Serine/threonine-protein kinase Nek7 (Homo sapiens) (UniProt Q8TDX7); experiment: Selectivity interaction (KinomeScan (DiscoverX)) EUB0000595a NEK7; details: at 10 µM
[4] = target: Tyrosine-protein kinase Yes (Homo sapiens) (UniProt P07947); experiment: Selectivity interaction (ActivX KiNativ screen (ex vivo kinase selectivity in human PBMCs)) EUB0001619a YES1; type: cell-based; details: PBMC, at 1 µM
[5] = target: T3, Ephrin type-B receptor 2 (Homo sapiens) (UniProt P29323); experiment: Selectivity interaction (KinomeScan (DiscoverX)) EUB0001619a EPHB2; details: at 1 µM
T3 sequence (whole entry): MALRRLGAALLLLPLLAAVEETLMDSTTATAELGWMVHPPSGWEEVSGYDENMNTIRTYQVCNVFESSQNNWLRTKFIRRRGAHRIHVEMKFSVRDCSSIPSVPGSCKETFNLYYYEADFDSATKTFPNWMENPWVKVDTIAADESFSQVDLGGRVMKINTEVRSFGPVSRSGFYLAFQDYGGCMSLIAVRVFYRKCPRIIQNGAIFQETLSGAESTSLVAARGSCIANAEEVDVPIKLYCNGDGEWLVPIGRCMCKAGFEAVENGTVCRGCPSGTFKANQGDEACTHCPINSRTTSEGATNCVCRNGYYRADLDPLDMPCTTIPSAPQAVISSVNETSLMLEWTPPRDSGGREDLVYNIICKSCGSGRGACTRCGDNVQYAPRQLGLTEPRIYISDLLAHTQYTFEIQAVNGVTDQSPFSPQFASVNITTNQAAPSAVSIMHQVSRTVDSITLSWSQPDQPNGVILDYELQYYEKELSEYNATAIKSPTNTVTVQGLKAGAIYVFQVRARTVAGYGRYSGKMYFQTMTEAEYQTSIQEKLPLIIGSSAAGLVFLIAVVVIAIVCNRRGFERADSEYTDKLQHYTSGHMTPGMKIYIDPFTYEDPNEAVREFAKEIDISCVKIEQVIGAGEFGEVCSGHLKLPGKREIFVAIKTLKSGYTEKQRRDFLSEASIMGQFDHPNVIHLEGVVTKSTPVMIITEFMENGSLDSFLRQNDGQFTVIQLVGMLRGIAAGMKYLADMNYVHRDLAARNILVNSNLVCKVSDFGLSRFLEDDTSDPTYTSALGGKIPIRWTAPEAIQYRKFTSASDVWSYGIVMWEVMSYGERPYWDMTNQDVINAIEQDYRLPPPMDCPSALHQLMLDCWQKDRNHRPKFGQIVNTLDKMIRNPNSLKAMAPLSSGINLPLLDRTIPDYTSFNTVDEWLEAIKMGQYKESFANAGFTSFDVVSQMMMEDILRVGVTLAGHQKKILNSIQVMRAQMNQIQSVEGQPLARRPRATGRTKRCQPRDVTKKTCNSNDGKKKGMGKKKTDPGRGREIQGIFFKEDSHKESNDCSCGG

[6] = system: Platelet-derived growth factor receptor alpha (Homo sapiens), P16234 [D842V]; experiment: (§1) Selectivity interaction (Kinase panel (Z-LYTE Assay)) EUB0001632a PDGFRA; details: at 10 µM
[7] = system: Platelet-derived growth factor receptor alpha (Homo sapiens), P16234 [T674I]; experiment: as §1; details: at 10 µM
[8] = target: Platelet-derived growth factor receptor alpha (Homo sapiens, UniProt P16234); experiment: as §1; details: at 10 µM
Sequence of Platelet-derived growth factor receptor alpha (P16234 whole entry): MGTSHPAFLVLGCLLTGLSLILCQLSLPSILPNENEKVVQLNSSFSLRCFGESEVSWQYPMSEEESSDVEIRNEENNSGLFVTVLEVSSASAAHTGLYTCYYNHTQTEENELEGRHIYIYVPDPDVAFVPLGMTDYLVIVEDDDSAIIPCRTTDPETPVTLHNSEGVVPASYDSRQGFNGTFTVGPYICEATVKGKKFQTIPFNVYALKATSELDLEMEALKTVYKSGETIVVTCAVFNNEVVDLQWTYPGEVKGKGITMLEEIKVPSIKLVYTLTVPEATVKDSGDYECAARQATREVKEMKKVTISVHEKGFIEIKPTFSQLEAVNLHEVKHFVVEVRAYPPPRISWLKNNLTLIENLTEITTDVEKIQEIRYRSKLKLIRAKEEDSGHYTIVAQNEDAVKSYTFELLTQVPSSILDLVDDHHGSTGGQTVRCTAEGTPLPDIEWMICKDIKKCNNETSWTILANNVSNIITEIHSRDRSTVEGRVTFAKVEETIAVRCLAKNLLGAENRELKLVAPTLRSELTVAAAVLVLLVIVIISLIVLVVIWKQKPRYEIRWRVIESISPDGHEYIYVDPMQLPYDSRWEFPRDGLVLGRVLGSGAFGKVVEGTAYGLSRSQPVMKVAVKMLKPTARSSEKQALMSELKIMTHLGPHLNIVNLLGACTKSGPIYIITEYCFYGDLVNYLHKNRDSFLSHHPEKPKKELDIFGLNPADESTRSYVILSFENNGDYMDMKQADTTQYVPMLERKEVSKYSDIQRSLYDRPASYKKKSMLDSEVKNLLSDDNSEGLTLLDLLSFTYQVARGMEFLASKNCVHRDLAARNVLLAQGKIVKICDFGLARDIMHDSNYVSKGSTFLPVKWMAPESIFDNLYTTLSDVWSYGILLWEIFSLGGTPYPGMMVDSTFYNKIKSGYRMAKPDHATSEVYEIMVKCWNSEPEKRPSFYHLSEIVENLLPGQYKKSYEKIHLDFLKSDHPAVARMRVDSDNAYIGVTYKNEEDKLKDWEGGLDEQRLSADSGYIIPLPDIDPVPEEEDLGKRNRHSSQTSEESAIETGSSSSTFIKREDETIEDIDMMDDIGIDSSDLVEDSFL

Sequence of Tyrosine-protein kinase Yes (Homo sapiens) (P07947 2-543 limits assumed): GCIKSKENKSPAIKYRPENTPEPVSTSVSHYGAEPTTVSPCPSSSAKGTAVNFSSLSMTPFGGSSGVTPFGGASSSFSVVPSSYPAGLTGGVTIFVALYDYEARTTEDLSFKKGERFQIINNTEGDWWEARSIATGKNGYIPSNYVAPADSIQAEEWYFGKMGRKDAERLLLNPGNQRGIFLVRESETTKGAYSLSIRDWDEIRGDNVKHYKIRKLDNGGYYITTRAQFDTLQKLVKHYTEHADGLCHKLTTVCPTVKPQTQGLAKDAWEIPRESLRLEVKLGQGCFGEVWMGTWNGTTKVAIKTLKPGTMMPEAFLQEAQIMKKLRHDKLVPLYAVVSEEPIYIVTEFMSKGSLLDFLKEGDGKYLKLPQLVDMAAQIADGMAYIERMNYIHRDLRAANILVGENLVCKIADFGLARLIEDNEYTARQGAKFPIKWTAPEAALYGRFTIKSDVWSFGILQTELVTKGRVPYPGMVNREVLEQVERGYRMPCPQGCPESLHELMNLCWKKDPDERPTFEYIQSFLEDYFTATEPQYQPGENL
Sequence of Platelet-derived growth factor receptor alpha (Homo sapiens), P16234 [T674I] (P16234 whole entry T674I): as the sequence (P16234 whole entry) above, with T674I counted along it
Sequence of Serine/threonine-protein kinase Nek7 (Homo sapiens) (Q8TDX7 whole entry, looked up): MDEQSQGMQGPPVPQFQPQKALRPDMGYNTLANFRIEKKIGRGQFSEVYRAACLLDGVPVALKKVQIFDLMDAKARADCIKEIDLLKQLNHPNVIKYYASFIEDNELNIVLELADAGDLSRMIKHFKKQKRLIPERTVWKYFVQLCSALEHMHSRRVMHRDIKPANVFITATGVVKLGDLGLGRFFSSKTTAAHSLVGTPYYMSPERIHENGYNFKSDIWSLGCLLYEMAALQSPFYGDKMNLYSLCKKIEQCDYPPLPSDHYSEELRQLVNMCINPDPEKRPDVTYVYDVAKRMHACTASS
Sequence of Platelet-derived growth factor receptor alpha (Homo sapiens), P16234 [D842V] (P16234 whole entry D842V): as the sequence (P16234 whole entry) above, with D842V counted along it

## COc1cc(Nc2nc(C)cc(-c3cnn4nc(OC)ccc34)n2)cc(C(F)(F)F)c1
[1]
  % of control: 80%

## C=CC(=O)Nc1ccc(C(=O)Nc2[nH]nc3c2CN(C(=O)N[C@H](CN(C)C)c2ccccc2)C3(C)C)cc1
[2]
  % of engagement: 6.7%

## COCC(=O)NC/C=C/c1ccc2ncnc(Nc3ccc(Oc4ccc(C)nc4)c(C)c3)c2c1 [CP-724714]
[3]
  % of control: 73%

## N#Cc1cccc(-c2c[nH]c3ncnc(N4CCOCC4)c23)c1
[4]
  % of inhibition: -9%
[5]
  % of control: 92%

## Cn1cc(-n2cnc3c(NCc4nc5cc(Cl)c(Cl)cc5[nH]4)nc(N4CCOCC4)nc32)cn1
[6]
  % of control: 7.9%
[7]
  % of control: 4.9%
[8]
  % of control: 8.82%
